{
  "source": "patent US20020094958A1",
  "about": "“Materials for lysosome modulation and methods of use thereof” (priority 2000, published 2002)",
  "key": {"lysosomal enzyme levels": {"tested_on": "lysosomal enzyme levels", "assay": "Upmodulation of lysosomal enzyme levels in hippocampal slice cultures (Table 1)", "format": "cell-based, rat", "conditions": "compounds individually applied to hippocampal slice cultures", "from_the_text": "Another aspect of the invention is the provision of compounds to increase cellular content (upmodulation) of lysosomal enzymes. As used herein “upmodulation” is an increase in the cellular content of lysosomal enzymes or in the content of lysosomes. Some inventive lysosomal modulating compounds are comprised by the previously described formulas (1) M-aan—CH═N═N, (2) M-aan—CH2—O—CO—[2-R-4-R-6-R-Phenyl], (3) M-aan—NH—CH2—CH N—NH—CO—NH2 and (4) M—N═N—CO—CH2-aan—O—R. Examples of compounds include, formula (1) benzyloxycarbonyl-Phe-Ala-diazomethylketone and benzyloxycarbonyl-Phe-Phe-diazomethylketone; formula (2) is benzyloxycarbonyl-Phe-Lys-2,4,6-trimethylbenzoyloxymethylketone; formula (3) is H-Gly-Phe-Gly-aldehyde semicarbazone; formula (4) is diazoacetyl-DL-2-aminohexanoic acid-methyl ester. When these compounds were individually applied to hippocampal slice cultures, each facilitated the upmodulation of lysosomal enzyme levels (Table 1). Each of the compounds is available from BACHEM Biosciences Inc. of King of Prussia, Pa. Presently, PADK is the preferred compound for modulation of lysosomal activity.\nLysosomal modulating compounds were identified that unexpectedly stimulate lysosomal activity and/or cellular feedback processes for the upregulation of lysosomal hydrolase levels. […] Thus the inventive lysosomal modulation promotes efficient tau turnover/processing and thereby reduces the ability of abnormally phosphorylated tau to drive non-pathogenic species off of microtubules and into the aggregated state. The non-pathogenic tau molecules would then be more readily available to stabilize microtubules and their transport mechanisms that are important for neuronal functions."}, "[1]": {"tested_on": "hippocampal slice cultures", "assay": "Continuous PADK application to hippocampal slice cultures over a 20-day period", "format": "cell-based, rat", "from_the_text": "One aspect of the invention is the use of compounds to modulate lysosomal activity. The modulation of lysosomal activity may be, but is not necessarily, accompanied by an increase in cellular content of lysosomes or lysosomal enzymes. Some inventive lysosomal modulating compounds comprise the previously described formulas (1) M-aan—CH═N═N, (2) M-aan—CH2—O—CO—[2-R-4-R-6-R-Phenyl], (3) M-aan—NH—CH2—CH═N—NH—CO—NH2, (4) M-N ═N—CO—CH2—aan—O—R, and combinations thereof. An example of formula (1) is benzyloxycarbonyl-Phe-Ala-diazomethylketone (PADK). As discussed in more detail later, PADK was applied to hippocampal slice cultures at a continuous concentration of 10 μM over a 20-day period. Fresh media and PADK compound were applied every two days.\nBenzyloxycarbonyl-Phe-Ala-diazomethylketone (PADK) was applied to hippocampal slice cultures at a continuous concentration of 10 μM over a 20-day period. Fresh media and PADK compound were applied every two days. […] Thus the inventive lysosomal modulation promotes efficient tau turnover/processing and thereby reduces the ability of abnormally phosphorylated tau to drive non-pathogenic species off of microtubules and into the aggregated state. The non-pathogenic tau molecules would then be more readily available to stabilize microtubules and their transport mechanisms that are important for neuronal functions. Such an inverse correlation between the two forms of tau was also evident in the hippocampus of aged mice, where the change vs. age relationships determined for hyperphosphorylated and non-phosphorylated tau were of equal but opposite slopes. Thus, lysosomal modulators may intervene in the progression of certain types of neuronal atrophy, as well as in the cellular processes that contribute to synaptic loss and the severity of Alzheimer-type dementia."}, "[2]": {"tested_on": "hippocampal slice cultures", "assay": "Synaptic marker decline and recovery after chloroquine-induced lysosomal dysfunction in hippocampal slice cultures", "format": "cell-based, rat", "conditions": "for recovery of the postsynaptic marker GluR1 concentration / recovery of the presynaptic marker synaptophysin concentration: 2-day recovery after 6-day 60 μM chloroquine, vs chloroquine baseline", "method": "The method comprises treatment of a neural tissue culture with a lysosomal disruptor (e.g., chloroquine) to initiate lysosome dysfunction in the culture. The culture is treated with a lysosomal disruptor in order to reproduce features characteristic of neurodegeneration, especially those found in Alzheimer's disease (FIG. 7). Preferably, chloroquine is utilized for the lysosomal disruptor due to its broad targeting of pH-dependent enzymes by disrupting the proton gradient of lysosomes. Chloroquine is added to the culture for an extended period of time (the addition time period) to cause gradual cellular changes.\nAfter a predetermined time, the lysosomal disrupter is removed from the culture and synaptic marker concentrations are determined. Subsequently, small amounts of compounds are administered to the neural tissue to modulate lysosomal enzymes. After such treatment, concentrations of synaptic markers in the neural tissue are determined, and the treated and untreated synaptic marker concentrations are compared to determine synaptic recovery (see FIG. 2). Thus by monitoring decline (during disruptor addition) and subsequent increase (during compound addition) of synaptic markers, synaptic degeneration and recovery can be assessed, and the efficacy of the added compounds can be measured.\nIn order to induce lysosomal dysfunction, 60 μM chloroquine in media was added separately to groups of hippocampal slice cultures. The chloroquine-containing media was changed every two days. Over a 6-day period, separate groups of slices were harvested and synaptic pathology assessed by determining the content of the postsynaptic marker GluR1. […] In a first set of slices the chloroquine was removed from the feeding media after the 6-day addition period and synaptic recovery was assessed after one and two days by measuring GluR1 concentration. […] Although the rate of decline slowed between the first and second day, there was no evidence of synaptic recovery.\nIn a second set of slices, synaptic recovery was assessed after removal of chloroquine-containing media and a single addition of 10 μM of the lysosomal modulator benzyloxycarbonyl-Phe-Ala-diazomethyiketone (PADK) in media was applied to cultures. As shown by the closed triangles, addition of PADK functioned to increase the GluR1 marker concentration, indicating recovery from synaptic degeneration.\nLysosomal dysfunction was induced by adding 60 μM chloroquine in media to separate groups of hippocampal slice cultures. The chloroquine-containing media was changed every two days for a total of six days. After the 6-day addition period, the chloroquine was removed from the feeding media of individual sets of cultures and presynaptic marker (synaptophysin) and postsynaptic marker (GluR1) concentrations assessed to provide a baseline indicated by the horizontal dotted lines in FIGS. 3A and 3B. 10 μM PADK, 10 μM Ampakine (trademark of Cortex Pharmaceuticals; Irvine, Calif.), and 10 μM memantine (derivatives of which are a trademark of Merz Pharmaceuticals; Germany) were added separately to separate chloroquine-treated cultures to assess their effects on synaptic recovery. After a 2-day recovery period, the separate groups of cultures were harvested and concentrations of presynaptic (synaptophysin) and postsynaptic (GluR1) markers were measured and compared to the reduced levels resulting from the 6-day chloroquine treatment. An increase from the baseline indicates recovery while no difference or further reduction of marker concentrations from the baseline indicates no recovery of synaptic maintenance."}, "[3]": {"tested_on": "hippocampal slice cultures", "assay": "Immunoblot of tau species and lysosomal enzymes after chloroquine-mediated lysosomal dysfunction in hippocampal slice cultures", "format": "cell-based, rat", "from_the_text": "Lysosomal dysfunction was produced in hippocampal slice cultures with chloroquine as in Example 2."}, "[4]": {"tested_on": "hippocampal slice cultures", "assay": "Horse-radish peroxidase dendritic transport scoring in hippocampal slice cultures", "format": "cell-based, rat", "method": "Lysosomal dysfunction was produced in hippocampal slice cultures with chloroquine as in Example 2. Separate groups of slices were assessed for transport capability by applying horse-radish peroxidase to neurons and scoring its transport from cell bodies along dendrites by two independent observers. […] By monitoring intracellular tau deposition, microtubule stabilization marker (acetylated tubulin), and transport capability, it appears that changes in all of these related parameters contribute to the link between lysosomal modulation and synapse maintenance (FIG. 7)."}, "cathepsin D": {"tested_on": "cathepsin D", "assay": "Cathepsin D in brain tissue of rats given PADK in drinking water", "format": "in vivo, rat", "conditions": "adult male rats, approximately 3 to 4 mg/kg/day, seven days, vs untreated group", "method": "A further aspect of the invention is a method of modulating lysosomal function in a subject comprising administering to the subject a therapeutically effective amount of at least one inventive lysosome modulating compound or a physiologically acceptable salt thereof. As discussed in more detail later, the lysosome modulating compound benzyloxycarbonyl-Phe-Ala-diazomethylketone (PADK) was added to the drinking water of a first group of 5 adult male rats in an amount corresponding to 3 to 4 mg PADK/kg rat weight/day. […] After seven days, hippocampal and neocortical tissue was isolated from the first and the second groups. The concentration of the lysosomal enzyme cathepsin D in tissue samples was assessed by immunoblot for each of the groups.\nThe lysosomal modulator benzyloxycarbonyl-Phe-Ala-diazomethylketone (PADK) was added to the drinking water of a first group of 5 adult male rats in an amount corresponding to approximately 3 to 4 mg PADK/ kg rat weight/day. […] After seven days, hippocampal and neocortical tissue was isolated from the first and the second groups. The concentration of cathepsin D in tissue samples was assessed by immunoblot for each of the groups."}, "[5]": {"conditions": "10 μM continuous, 20-day period"}, "[6]": {"conditions": "2 days PADK following 6-day chloroquine treatment"}, "[7]": {"conditions": "PADK for two days following 6-day chloroquine period"}, "[8]": {"conditions": "6 days chloroquine then 2 days media alone, vs untreated control"}},
  "note": "Where a SMILES comes first, the peptide text is derived from it. The star is where a group is joined. Cbz = O=C(OCc1ccccc1)*; CHN2 = [N-]=[N+]=C*",
  "data": [
    {"smiles": "C[C@H](NC(=O)[C@H](Cc1ccccc1)NC(=O)OCc1ccccc1)C(=O)C=[N+]=[N-]", "note": "[(1), benzyloxycarbonyl-Phe-Ala-diazomethylketone]", "values": [
      {"measurement": "upmodulated cathepsin types", "setting": "lysosomal enzyme levels", "value": "B, D, S"},
      {"measurement": "cathepsin D levels", "setting": "[1]; [5]", "value": "stably enhanced"},
      {"measurement": "non-pathogenic tau isoforms", "setting": "[1]; [5]", "value": "gradual increase"},
      {"measurement": "pathogenic hyperphosphorylated tau species concentration", "setting": "[1]; [5]", "value": "gradually reduced"},
      {"measurement": "synaptic marker (GluR1)", "setting": "[1]; [5]", "value": "without any reduction"},
      {"measurement": "concentration of the lysosomal enzyme cathepsin D", "setting": "[1]; 10 μM, after 5 days of treatment", "value": "not significantly altered"},
      {"measurement": "recovery from synaptic degeneration (GluR1)", "setting": "[2]; Example 2, single 10 μM addition after 6-day chloroquine, one day", "value": "significant recovery"},
      {"measurement": "recovery of GluR1 level", "setting": "[2]; Example 2, single 10 μM addition after 6-day chloroquine, two days", "value": 71, "unit": "%"},
      {"measurement": "recovery of the postsynaptic marker GluR1 concentration", "setting": "[2]; Example 3, 10 μM", "value": 70, "unit": "%"},
      {"measurement": "recovery of the presynaptic marker synaptophysin concentration", "setting": "[2]; Example 3, 10 μM", "value": "~35", "unit": "%"},
      {"measurement": "55-69 kDa tau species", "setting": "[3]; [6]", "value": "reduction"},
      {"measurement": "cathepsin D", "setting": "[3]; [6]", "value": "robust upmodulation"},
      {"measurement": "levels of lysosomal enzymes cathepsin B (CB), cathepsin D (CD), cathepsin S (CS)", "setting": "[3]; FIG. 5 immunoblots", "value": "enhanced levels"},
      {"measurement": "control levels of tau isoforms", "setting": "[3]; PADK addition alone (no chloroquine)", "value": "without altering"},
      {"measurement": "restoration of transport capability", "setting": "[4]; [7]", "value": "significant restoration"},
      {"measurement": "transport failure", "setting": "[4]; [7]", "value": "did not exhibit transport failure"},
      {"measurement": "lysosomal enzyme (cathepsin D) concentration in hippocampal and neocortical tissue", "setting": "cathepsin D", "value": "significant increases"}
    ]},
    {"smiles": "[N-]=[N+]=CC(=O)[C@H](Cc1ccccc1)NC(=O)[C@H](Cc1ccccc1)NC(=O)OCc1ccccc1", "note": "[(2), benzyloxycarbonyl-Phe-Phe-diazomethylketone] (Cbz-Phe-Phe-CHN2)", "values": [
      {"measurement": "upmodulated cathepsin types", "setting": "lysosomal enzyme levels", "value": "B, D"}
    ]},
    {"smiles": "NCC(=O)NC(Cc1ccccc1)C(=O)NCC=NNC(N)=O", "note": "(stereo not drawn) [(4), H-Gly-Phe-Gly-aldehyde semicarbazone]", "values": [
      {"measurement": "upmodulated cathepsin types", "setting": "lysosomal enzyme levels", "value": "B, D"}
    ]},
    {"smiles": "CCN(CC)CCCC(C)Nc1ccnc2cc(Cl)ccc12", "note": "(centres unmarked) [chloroquine, reference compound]", "values": [
      {"measurement": "GluR1 concentration during disruptor exposure", "setting": "[2]; 60 μM, 6-day exposure period", "value": "decreased"},
      {"measurement": "cathepsin D (CD)", "setting": "[3]; [8]", "value": "small compensatory increase"},
      {"measurement": "potentially pathogenic tau species of 55-69 kDa", "setting": "[3]; [8]", "value": "enhanced levels"},
      {"measurement": "transport capacity", "setting": "[4]; 6-day chloroquine followed by 2 days media alone, vs untreated slices", "value": "adversely affected"}
    ]},
    {"smiles": "CC12CC3CC(C)(C1)CC(N)(C3)C2", "note": "[memantine, reference compound]", "values": [
      {"measurement": "recovery of the postsynaptic marker GluR1 concentration", "setting": "[2]; Example 3, 10 μM", "value": "No statistically significant recovery"},
      {"measurement": "recovery of the presynaptic marker synaptophysin concentration", "setting": "[2]; Example 3, 10 μM", "value": "No statistically significant recovery"},
      {"measurement": "GluR1 level change vs baseline", "setting": "[2]; Example 3, 10 μM, 2-day recovery period, FIG. 3A", "value": "small decrease"}
    ]}
  ]
}
